Reference: patent US9790215B2 (FLATLEY DISCOVERY LAB, LLC, priority 2013, dated 2017)

Target: T1, human ΔF508-CFTR (Homo sapiens, UniProt P13569, DEL508-508)
T1 construct: expressed in transfected cells
Experiment: CFTR-YFP High Throughput Assay (YFP halide flux in FRT cells)
Assay type: cell-based
Settings: FRT cells expressing human ΔF508-CFTR and YFP; forskolin stimulated
Experimental: Assays for Detecting and Measuring the Effect of Compounds on dF508-CFTR Channels CFRT-YFP High Throughput Assay:
The following protocol is designed to selectively screen small molecule compounds for F508del CFTR corrector activities in the HTS YFP flux assay. In this protocol, the cells are incubated with testing compounds for 24 hours, washed with PBS, stimulated with forskolin and a standard potentiator, and read on a 384-well HTS plate reader, such as the Hamamatsu FDDD-6000.
(§1) YFP fluorescence intensity is acquired at high speed before and after iodide buffer is injected to the assay cells. Iodide enters the cells via active CFTR channels in the plasma membrane, and quenches the YFP fluorescence. The rate of fluorescence quenching is proportionally related to the total CFTR activities in the cell membrane. dF508-CFTR corrector accelerates YFP quenching by increasing the number of CFTR molecules in the testing cell plasma membrane.
This method was initially developed for bench top plate readers (Galietta et al., 2001), and was adapted to the HTS format (Sui et al. Assay Drug Dev. Technol. 2010).
Fisher Rat Thyroid (FRT) cells stably expressing both human AF508-CFTR and a halide-sensitive yellow fluorescent protein (YFP—H148Q/1152L 25, 22) (Galietta et al., Am. J. Physiol Cell Physiol 281(5), C1734, 2001) were cultured on plastic surface in Coon's modified Ham's F12 medium supplemented with FBS 10%, L-glutamine 2 mM, penicillin 100 U/mL, and streptomycin 100 μg/mL. G418 (0.75-1.0 mg/mL) and zeocin (3.2 ug/mL) were used for selection of FRT cells expressing ΔF508-CFTR and YFP. For primary screening, FRT cells were plated into 384-well black wall, transparent bottom microtiter plates (Costar; Corning Inc.) at a cell density of 20,000-40,000 per well. Test compound was applied to the cells at varying concentrations ranging from […] in either a 2-fold or 3-fold dilution series. Cells were incubated in a cell culture incubator at 37° C. with 5% CO2 for 24-26 h. Assay plates were washed with DPBS media (Thermo, cat# SH30028.02) to remove unbound cells and compound. Stimulation media (25 μL) containing 20 μM Forskolin & 30 μM P3 [6-(Ethyl-phenyl-sulfonyl)-4-oxo-1,4-dihydro-quinoline-3-carboxylic acid 2-methoxy-benzylamide] in Hams F-12 coon's modified media was added to the plate wells and incubated at room temperature for 60-120 min. 25 μL of HEPES-PBS-I buffer (10 mM HEPES, 1 mM MgCl2, 3 mM KCl, 1 mM CaCl2, 150 mM NaI) was then added and fluorescence quench curves (Excitation 500 nm/Emission 540 nm; exposure 136 ms) were immediately recorded on an FDSS-6000 plate reader (Hamamatsu). Quench rates were derived from least squares fitting of the data as described by Sui et al., (2010).
The following protocol is designed to selectively screen small molecule compounds for F508del CFTR potentiator activities in the HTS YFP flux assay. In this protocol, the cells are incubated at 27 C for 24 hours with homogeneously boosted dF508-CFTR expression in the cell membrane by the low temperature, washed with PBS, stimulated with forskolin, and read on a 384-well HTS plate reader, such as the Hamamatsu FDDD-6000.
as §1, with “dF508del-CFTR potentiators accelerate” for “dF508-CFTR corrector accelerates”, “increasing” for “increasing the number of”, “activities” for “molecules”
Fisher Rat Thyroid (FRT) cells stably expressing both human ΔF508-CFTR and a halide-sensitive yellow fluorescent protein (YFP-H148Q/I152L 25, 22) (Galietta et al., Am. J. Physiol Cell Physiol 281(5), C1734, 2001) were cultured on plastic surface in Coon's modified Ham's F12 medium supplemented with FBS 10%, L-glutamine 2 mM, penicillin 100 U/mL, and streptomycin 100 μg/mL. […]

T1 sequence (P13569 with tags, fused parts or gaps DEL508-508): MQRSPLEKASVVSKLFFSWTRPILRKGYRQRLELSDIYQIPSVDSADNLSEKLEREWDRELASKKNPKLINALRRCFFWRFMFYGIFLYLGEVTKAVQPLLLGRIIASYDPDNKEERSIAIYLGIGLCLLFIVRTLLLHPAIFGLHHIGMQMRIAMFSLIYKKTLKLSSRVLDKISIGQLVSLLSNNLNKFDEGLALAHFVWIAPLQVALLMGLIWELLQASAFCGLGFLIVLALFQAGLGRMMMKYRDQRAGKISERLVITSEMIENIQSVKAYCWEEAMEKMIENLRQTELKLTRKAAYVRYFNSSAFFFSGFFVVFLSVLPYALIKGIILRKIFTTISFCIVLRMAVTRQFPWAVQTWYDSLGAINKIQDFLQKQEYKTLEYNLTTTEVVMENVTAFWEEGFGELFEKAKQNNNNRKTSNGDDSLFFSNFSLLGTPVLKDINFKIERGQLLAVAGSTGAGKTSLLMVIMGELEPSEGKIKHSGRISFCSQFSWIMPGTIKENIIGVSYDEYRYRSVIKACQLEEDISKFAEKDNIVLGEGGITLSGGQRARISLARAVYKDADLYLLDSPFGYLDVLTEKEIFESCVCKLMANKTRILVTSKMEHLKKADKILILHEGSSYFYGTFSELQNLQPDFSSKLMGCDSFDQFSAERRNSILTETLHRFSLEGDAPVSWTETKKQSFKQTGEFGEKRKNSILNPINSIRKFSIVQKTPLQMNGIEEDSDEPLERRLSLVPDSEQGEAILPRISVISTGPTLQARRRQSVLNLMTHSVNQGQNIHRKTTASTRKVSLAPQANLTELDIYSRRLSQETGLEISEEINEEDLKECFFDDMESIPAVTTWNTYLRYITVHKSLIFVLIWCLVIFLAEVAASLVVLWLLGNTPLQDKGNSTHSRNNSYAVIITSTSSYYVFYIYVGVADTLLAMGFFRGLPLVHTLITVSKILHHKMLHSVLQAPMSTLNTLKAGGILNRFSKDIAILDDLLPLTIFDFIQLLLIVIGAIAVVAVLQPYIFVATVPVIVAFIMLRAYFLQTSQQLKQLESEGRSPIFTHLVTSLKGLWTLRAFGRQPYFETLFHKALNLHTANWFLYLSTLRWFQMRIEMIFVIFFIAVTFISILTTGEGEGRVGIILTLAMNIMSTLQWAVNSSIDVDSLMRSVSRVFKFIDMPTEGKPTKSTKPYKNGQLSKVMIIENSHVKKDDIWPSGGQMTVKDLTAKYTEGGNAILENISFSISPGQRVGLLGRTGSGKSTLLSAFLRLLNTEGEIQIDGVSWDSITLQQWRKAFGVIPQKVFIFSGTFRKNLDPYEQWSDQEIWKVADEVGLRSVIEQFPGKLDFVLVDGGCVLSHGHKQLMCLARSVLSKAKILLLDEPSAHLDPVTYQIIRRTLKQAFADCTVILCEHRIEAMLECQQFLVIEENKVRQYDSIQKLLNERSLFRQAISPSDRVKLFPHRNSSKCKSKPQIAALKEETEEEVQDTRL

EC50 [µM]	Compound
< 10	COc1ccc2c(-c3cccc(C#N)c3)nn(CC(=O)N(C)c3ccc4c(c3)OC(F)(F)O4)c(=O)c2c1 [Example 63, 2-(4-(3-cyanophenyl)-7-methoxy-1-oxophthalazin-2(1H)-yl)-N-(2,2-difluorobenzo[d][1,3]dioxol-5-yl)-N-methylacetamide]
< 10	COc1ccc2c(-c3ccc(S(N)(=O)=O)cc3)nn(CC(=O)N(C)c3ccc4c(c3)OC(F)(F)O4)c(=O)c2c1 [Example 64, N-(2,2-difluorobenzo[d][1,3]dioxol-5-yl)-2-(7-methoxy-1-oxo-4-(4-sulfamoylphenyl)phthalazin-2(1H)-yl)-N-methylacetamide]
< 10	CCN(C(=O)Cn1nc(-c2ccc(S(N)(=O)=O)cc2)c2ccc(OC)cc2c1=O)c1ccc2c(c1)OC(F)(F)O2 [Example 65, N-(2,2-difluorobenzo[d][1,3]dioxol-5-yl)-N-ethyl-2-(7-methoxy-1-oxo-4-(4-sulfamoylphenyl)phthalazin-2(1H)-yl)acetamide]
> 20	CCN(C(=O)Cn1nc(-c2ccc(S(N)(=O)=O)cc2)c2ccc(OC)cc2c1=O)c1ccc(OC(F)F)cc1 [Example 66, N-(4-(difluoromethoxy)phenyl)-N-ethyl-2-(7-methoxy-1-oxo-4-(4-sulfamoylphenyl)phthalazin-2(1H)-yl)acetamide]
< 10	CCN(C(=O)Cn1nc(-c2cccc(C#N)c2)c2ccc(OC)cc2c1=O)c1ccc(OC(F)F)cc1 [Example 67, 2-(4-(3-cyanophenyl)-7-methoxy-1-oxophthalazin-2(1H)-yl)-N-(4-(difluoromethoxy)phenyl)-N-ethylacetamide]
< 10	COc1ccc2c(-c3ccc(S(N)(=O)=O)cc3)nn(CC(=O)N(c3ccc4c(c3)OC(F)(F)O4)C(C)C)c(=O)c2c1 [Example 69, N-(2,2-difluorobenzo[d][1,3]dioxol-5-yl)-N-isopropyl-2-(7-methoxy-1-oxo-4-(4-sulfamoyl-phenyl)phthalazin-2(1H)-yl)acetamide]
< 10	COc1ccc2c(-c3cccc(C#N)c3)nn(CC(=O)N(c3ccc4c(c3)OC(F)(F)O4)C(C)C)c(=O)c2c1 [Example 70, 2-(4-(3-cyanophenyl)-7-methoxy-1-oxophthalazin-2(1H)-yl)-N-(2,2-difluorobenzo[d][1,3]dioxol-5-yl)-N-isopropylacetamide]
< 10	COc1ccc2c(-c3ccc(S(N)(=O)=O)cc3)nn(CC(=O)N(c3ccc4c(c3)OC(F)(F)O4)C3CC3)c(=O)c2c1 [Example 71, N-cyclopropyl-N-(2,2-difluorobenzo[d][1,3]dioxol-5-yl)-2-(7-methoxy-1-oxo-4-(4-sulfamoylphenyl)phthalazin-2(1H)-yl)acetamide]
< 10	COc1ccc2c(-c3cccc(C#N)c3)nn(CC(=O)N(c3ccc4c(c3)OC(F)(F)O4)C3CC3)c(=O)c2c1 [Example 72, 2-(4-(3-cyanophenyl)-7-methoxy-1-oxophthalazin-2(1H)-yl)-N-cyclopropyl-N-(2,2-difluorobenzo[d][1,3]dioxol-5-yl)acetamide]
< 10	CCN(C(=O)Cn1nc(-c2ccc(C(N)=O)cc2)c2ccc(OC)cc2c1=O)c1ccc2c(c1)OC(F)(F)O2 [Example 75, 4-(3-(2-((2,2-difluorobenzo[d][1,3]dioxol-5-yl)(ethyl)amino)-2-oxoethyl)-6-methoxy-4-oxo-3,4-dihydrophthalazin-1-yl)benzamide]
< 10	COc1ccc2c(-c3ccc(C(N)=O)cc3)nn(CC(=O)N(C)c3ccc4c(c3)OC(F)(F)O4)c(=O)c2c1 [Example 76, 4-(3-(2-((2,2-difluorobenzo[d][1,3]dioxol-5-yl)(methyl)amino)-2-oxoethyl)-6-methoxy-4-oxo-3,4-dihydrophthalazin-1-yl)benzamide]
< 10	CCN(C(=O)Cn1nc(-c2ccc(C(N)=O)cc2)c2ccc(OC)cc2c1=O)c1ccc2nc(C)oc2c1 [Example 77, 4-(3-(2-(ethyl(2-methylbenzo[d]oxazol-6-yl)amino)-2-oxoethyl)-6-methoxy-4-oxo-3,4-dihydrophthalazin-1-yl)benzamide]
10 to 20	CCN(C(=O)Cn1nc(C(=O)N(C)c2ccccn2)c2ccccc2c1=O)c1ccc2c(c1)OC(F)(F)O2 [Example 81, 3-(2-((2,2-difluorobenzo[d][1,3]dioxol-5-yl)(ethyl)amino)-2-oxoethyl)-N-methyl-4-oxo-N-(pyridin-2-yl)-3,4-dihydrophthalazine-1-carboxamide]

The remaining lines, values behind:

Compound	EC50 [µM]
CCN(C(=O)Cn1nc(Cc2cccnc2)c2c(OC3CCCCC3)cccc2c1=O)c1ccc2c(c1)OC(F)(F)O2 [Example 60, 2-(5-(cyclohexyloxy)-1-oxo-4-(pyridin-3-ylmethyl)phthalazin-2(1H)-yl)-N-(2,2-difluorobenzo[d][1,3]dioxol-5-yl)-N-ethylacetamide]	< 10
CCN(C(=O)Cn1nc(Cc2cccnc2)c2cccc(OCCOC)c2c1=O)c1ccc2c(c1)OC(F)(F)O2 [Example 61, N-(2,2-difluorobenzo[d][1,3]dioxol-5-yl)-N-ethyl-2-(8-(2-methoxyethoxy)-1-oxo-4-(pyridin-3-ylmethyl)phthalazin-2(1H)-yl)acetamide]	< 10
CCN(C(=O)Cn1nc(Cc2cccnc2)c2c(OCCOC)cccc2c1=O)c1ccc2c(c1)OC(F)(F)O2 [Example 62, N-(2,2-difluorobenzo[d][1,3]dioxol-5-yl)-N-ethyl-2-(5-(2-methoxyethoxy)-1-oxo-4-(pyridin-3-ylmethyl)phthalazin-2(1H)-yl)acetamide]	< 10
CCN(C(=O)Cn1nc(C(=O)Nc2ccccc2C#N)c2ccccc2c1=O)c1ccc2c(c1)OC(F)(F)O2 [Example 78, N-(2-cyanophenyl)-3-(2-((2,2-difluorobenzo[d][1,3]dioxol-5-yl)(ethyl)amino)-2-oxoethyl)-4-oxo-3,4-dihydrophthalazine-1-carboxamide]	10 to 20
CCN(C(=O)Cn1nc(C(=O)Nc2cc(Cl)ccc2C(=O)O)c2ccccc2c1=O)c1ccc2c(c1)OC(F)(F)O2 [Example 79, 4-chloro-2-(3-(2-((2,2-difluorobenzo[d][1,3]dioxol-5-yl)(ethyl)amino)-2-oxoethyl)-4-oxo-3,4-dihydrophthalazine-1-carboxamido)benzoic acid]	< 10
CCN(C(=O)Cn1nc(C(=O)Nc2ccccn2)c2ccccc2c1=O)c1ccc2c(c1)OC(F)(F)O2 [Example 80, 3-(2-((2,2-difluorobenzo[d][1,3]dioxol-5-yl)(ethyl)amino)-2-oxoethyl)-4-oxo-N-(pyridin-2-yl)-3,4-dihydrophthalazine-1-carboxamide]	> 20
CCc1ccc(N(CC)C(=O)Cn2nc(C(=O)Nc3cc(Cl)ccc3C#N)c3ccccc3c2=O)cc1 [Example 82, N-(5-chloro-2-cyanophenyl)-3-(2-(ethyl(4-ethylphenyl)amino)-2-oxoethyl)-4-oxo-3,4-dihydrophthalazine-1-carboxamide]	< 10
CCN(C(=O)Cn1nc(C(=O)N(CC)c2ccccc2C#N)c2ccccc2c1=O)c1ccc2c(c1)OC(F)(F)O2 [Example 83, N-(2-cyanophenyl)-3-(2-((2,2-difluoro-benzo[d][1,3]dioxol-5-yl)(ethyl)amino)-2-oxoethyl)-N-ethyl-4-oxo-3,4-dihydro-phthalazine-1-carboxamide]	< 10
CCc1ccc(N(CC)C(=O)Cn2nc(C(=O)Nc3cc(Cl)ccc3C(=O)OC)c3ccccc3c2=O)cc1 [Example 84, methyl 4-chloro-2-(3-(2-(ethyl(4-ethylphenyl)amino)-2-oxoethyl)-4-oxo-3,4-dihydrophthalazine-1-carboxamido)benzoate]	< 10
